Assays:
Assay in all cases: KINOMEscan
Type in all cases: binding
Details in all cases: read-out: Remaining enzyme activity
[1] = target: T1, PKAC-beta (Homo sapiens, UniProt P22694)
T1 construct: purchased Ambit (DiscoverX) KINOMEscan; Cerep
Procedure, shortened: (§1)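 Read-out: qPCR quantitation of DNA-tagged kinase eluted from affinity beads after competition with SC81458 (10 μM final). Kinases were expressed either as T7 phage fusions in E. coli or in HEK-293 cells.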

[2] = target: T2, PDGFRb (Homo sapiens, UniProt P09619)
T2 construct: purchased Ambit (DiscoverX) KINOMEscan; Cerep
Procedure, shortened: as §1

[3] = target: T3, EGFR (Homo sapiens, UniProt P00533)
T3 construct: purchased Ambit (DiscoverX) KINOMEscan; Cerep
Procedure, shortened: as §1

[4] = target: T4, LTK (Homo sapiens, UniProt P29376)
T4 construct: purchased Ambit (DiscoverX) KINOMEscan; Cerep
Procedure, shortened: as §1

[5] = target: T5, RAF1 (Homo sapiens, UniProt P04049)
T5 construct: purchased Ambit (DiscoverX) KINOMEscan; Cerep
Procedure, shortened: as §1

[6] = target: T6, CSNK2a2 (Homo sapiens, UniProt P19784)
T6 construct: purchased Ambit (DiscoverX) KINOMEscan; Cerep
Procedure, shortened: as §1

[7] = target: T7, EPHA8 (Homo sapiens, UniProt P29322)
T7 construct: purchased Ambit (DiscoverX) KINOMEscan; Cerep
Procedure, shortened: as §1

[8] = target: T8, QSK (Homo sapiens, UniProt Q9Y2K2)
T8 construct: purchased Ambit (DiscoverX) KINOMEscan; Cerep
Procedure, shortened: as §1

[9] = target: T9, PIK3Cg (Homo sapiens, UniProt P48736)
T9 construct: purchased Ambit (DiscoverX) KINOMEscan; Cerep
T9 sequence (P48736 whole entry): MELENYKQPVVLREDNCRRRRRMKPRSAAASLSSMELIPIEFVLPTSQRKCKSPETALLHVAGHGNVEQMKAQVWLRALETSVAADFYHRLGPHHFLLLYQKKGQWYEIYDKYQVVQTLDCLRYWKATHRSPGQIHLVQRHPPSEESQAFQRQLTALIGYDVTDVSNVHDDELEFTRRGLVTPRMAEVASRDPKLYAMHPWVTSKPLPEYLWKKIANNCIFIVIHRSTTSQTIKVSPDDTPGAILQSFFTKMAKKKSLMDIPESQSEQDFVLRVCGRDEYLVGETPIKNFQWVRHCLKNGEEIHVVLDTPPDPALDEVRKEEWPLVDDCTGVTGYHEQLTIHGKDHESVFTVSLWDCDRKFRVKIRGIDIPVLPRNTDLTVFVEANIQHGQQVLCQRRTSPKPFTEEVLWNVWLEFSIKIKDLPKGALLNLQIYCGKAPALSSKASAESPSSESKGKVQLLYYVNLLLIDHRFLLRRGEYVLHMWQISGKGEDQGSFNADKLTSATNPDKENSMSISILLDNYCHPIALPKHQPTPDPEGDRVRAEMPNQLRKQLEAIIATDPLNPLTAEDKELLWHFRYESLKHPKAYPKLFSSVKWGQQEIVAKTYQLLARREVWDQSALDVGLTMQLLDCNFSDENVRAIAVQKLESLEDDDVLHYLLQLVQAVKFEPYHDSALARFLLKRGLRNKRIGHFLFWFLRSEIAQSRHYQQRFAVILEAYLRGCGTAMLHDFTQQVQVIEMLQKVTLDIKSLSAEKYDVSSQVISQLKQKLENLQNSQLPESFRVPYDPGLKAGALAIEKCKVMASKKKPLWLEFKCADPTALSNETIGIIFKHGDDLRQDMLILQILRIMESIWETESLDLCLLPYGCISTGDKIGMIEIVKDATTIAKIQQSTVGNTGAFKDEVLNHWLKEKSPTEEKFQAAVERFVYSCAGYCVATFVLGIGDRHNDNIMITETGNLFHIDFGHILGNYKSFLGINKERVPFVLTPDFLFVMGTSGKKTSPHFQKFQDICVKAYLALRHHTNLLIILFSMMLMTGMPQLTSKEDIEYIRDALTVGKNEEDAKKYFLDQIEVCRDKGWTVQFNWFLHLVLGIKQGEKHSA
Procedure, shortened: as §1

[10] = target: T10, RIPK1 (Homo sapiens, UniProt Q13546)
T10 construct: purchased Ambit (DiscoverX) KINOMEscan; Cerep
Procedure, shortened: as §1

[11] = target: T11, FGFR4 (Homo sapiens, UniProt P22455)
T11 construct: purchased Ambit (DiscoverX) KINOMEscan; Cerep
Procedure, shortened: as §1

[12] = target: T12, CAMK4 (Homo sapiens, UniProt Q16566)
T12 construct: purchased Ambit (DiscoverX) KINOMEscan; Cerep
Procedure, shortened: as §1

[13] = target: T13, PLK2 (Homo sapiens, UniProt Q9NYY3)
T13 construct: purchased Ambit (DiscoverX) KINOMEscan; Cerep
Procedure, shortened: as §1

[14] = target: T14, BRAF (Homo sapiens, UniProt P15056)
T14 construct: purchased Ambit (DiscoverX) KINOMEscan; Cerep
T14 sequence (P15056 whole entry): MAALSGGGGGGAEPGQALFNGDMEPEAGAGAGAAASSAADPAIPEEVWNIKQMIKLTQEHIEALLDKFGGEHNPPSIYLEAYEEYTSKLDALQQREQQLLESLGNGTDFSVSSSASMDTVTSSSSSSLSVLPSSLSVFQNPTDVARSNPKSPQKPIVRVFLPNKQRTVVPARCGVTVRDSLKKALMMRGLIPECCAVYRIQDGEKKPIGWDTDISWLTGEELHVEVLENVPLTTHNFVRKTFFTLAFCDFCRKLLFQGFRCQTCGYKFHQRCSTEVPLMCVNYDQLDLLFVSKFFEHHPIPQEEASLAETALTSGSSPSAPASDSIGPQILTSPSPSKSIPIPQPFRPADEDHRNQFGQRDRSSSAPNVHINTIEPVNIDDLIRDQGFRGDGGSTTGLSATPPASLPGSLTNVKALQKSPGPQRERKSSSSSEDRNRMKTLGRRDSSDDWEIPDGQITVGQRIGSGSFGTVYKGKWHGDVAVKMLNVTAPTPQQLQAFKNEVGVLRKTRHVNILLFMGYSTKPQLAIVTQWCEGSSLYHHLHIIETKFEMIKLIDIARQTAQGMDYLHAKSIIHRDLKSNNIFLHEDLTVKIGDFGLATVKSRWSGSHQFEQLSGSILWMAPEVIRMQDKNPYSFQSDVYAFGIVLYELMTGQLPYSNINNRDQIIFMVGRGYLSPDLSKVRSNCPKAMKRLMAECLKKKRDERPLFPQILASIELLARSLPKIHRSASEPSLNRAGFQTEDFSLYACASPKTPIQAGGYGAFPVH
Procedure, shortened: as §1

[15] = target: T15, EGFR(S752-I759del) (Homo sapiens, UniProt P00533, DEL752-759)
T15 construct: purchased Ambit (DiscoverX) KINOMEscan; Cerep
T15 sequence (P00533 with tags, fused parts or gaps DEL752-759 limits assumed): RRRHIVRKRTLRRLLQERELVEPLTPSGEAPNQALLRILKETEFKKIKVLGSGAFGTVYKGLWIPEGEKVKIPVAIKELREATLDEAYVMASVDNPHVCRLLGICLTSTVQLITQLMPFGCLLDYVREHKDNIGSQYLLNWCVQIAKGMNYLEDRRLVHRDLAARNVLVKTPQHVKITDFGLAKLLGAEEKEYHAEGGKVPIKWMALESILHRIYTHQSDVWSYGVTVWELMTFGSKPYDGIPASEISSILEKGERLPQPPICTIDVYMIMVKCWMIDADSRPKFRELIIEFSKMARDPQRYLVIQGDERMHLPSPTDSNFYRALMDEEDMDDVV
Procedure, shortened: as §1

[16] = target: T16, LZK (Homo sapiens, UniProt O43283)
T16 construct: purchased Ambit (DiscoverX) KINOMEscan; Cerep
Procedure, shortened: as §1

[17] = target: T17, MAP3K15 (Homo sapiens, UniProt Q6ZN16)
T17 construct: purchased Ambit (DiscoverX) KINOMEscan; Cerep
Procedure, shortened: as §1

[18] = target: T18, MAPKAPK2 (Homo sapiens, UniProt P49137)
T18 construct: purchased Ambit (DiscoverX) KINOMEscan; Cerep
Procedure, shortened: as §1

[19] = target: T19, ADCK3 (Homo sapiens, UniProt Q8NI60)
T19 construct: purchased Ambit (DiscoverX) KINOMEscan; Cerep
Procedure, shortened: as §1

[20] = target: T20, PIP5K2b (Homo sapiens, UniProt P78356)
T20 construct: purchased Ambit (DiscoverX) KINOMEscan; Cerep
Procedure, shortened: as §1

[21] = target: T21, STK16 (Homo sapiens, UniProt O75716)
T21 construct: purchased Ambit (DiscoverX) KINOMEscan; Cerep
Procedure, shortened: as §1

[22] = target: T22, TNK1 (Homo sapiens, UniProt Q13470)
T22 construct: purchased Ambit (DiscoverX) KINOMEscan; Cerep
T22 sequence (Q13470 whole entry): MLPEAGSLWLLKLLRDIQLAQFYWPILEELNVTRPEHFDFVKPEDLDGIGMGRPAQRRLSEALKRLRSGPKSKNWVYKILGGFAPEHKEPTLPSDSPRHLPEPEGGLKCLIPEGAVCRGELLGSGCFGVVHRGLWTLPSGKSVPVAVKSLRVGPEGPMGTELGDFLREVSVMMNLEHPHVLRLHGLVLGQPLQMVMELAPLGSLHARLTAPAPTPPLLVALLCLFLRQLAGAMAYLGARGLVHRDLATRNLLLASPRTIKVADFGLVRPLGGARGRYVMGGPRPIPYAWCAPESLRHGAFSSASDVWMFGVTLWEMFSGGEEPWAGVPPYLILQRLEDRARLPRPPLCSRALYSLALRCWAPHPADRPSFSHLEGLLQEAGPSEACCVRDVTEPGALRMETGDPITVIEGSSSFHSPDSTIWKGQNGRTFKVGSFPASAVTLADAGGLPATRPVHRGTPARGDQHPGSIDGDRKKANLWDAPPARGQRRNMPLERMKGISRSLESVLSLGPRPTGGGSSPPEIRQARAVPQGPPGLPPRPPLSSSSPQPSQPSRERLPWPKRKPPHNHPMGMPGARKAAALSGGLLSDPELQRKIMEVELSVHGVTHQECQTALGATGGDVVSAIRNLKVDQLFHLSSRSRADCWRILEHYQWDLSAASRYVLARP
Procedure, shortened: as §1

[23] = target: T23, AKT2 (Homo sapiens, UniProt P31751)
T23 construct: purchased Ambit (DiscoverX) KINOMEscan; Cerep
Procedure, shortened: as §1

[24] = target: T24, ZAK (Homo sapiens, UniProt Q9NYL2)
T24 construct: purchased Ambit (DiscoverX) KINOMEscan; Cerep
Procedure, shortened: as §1

[25] = target: T25, AAK1 (Homo sapiens, UniProt Q2M2I8)
T25 construct: purchased Ambit (DiscoverX) KINOMEscan; Cerep
T25 sequence (Q2M2I8 whole entry): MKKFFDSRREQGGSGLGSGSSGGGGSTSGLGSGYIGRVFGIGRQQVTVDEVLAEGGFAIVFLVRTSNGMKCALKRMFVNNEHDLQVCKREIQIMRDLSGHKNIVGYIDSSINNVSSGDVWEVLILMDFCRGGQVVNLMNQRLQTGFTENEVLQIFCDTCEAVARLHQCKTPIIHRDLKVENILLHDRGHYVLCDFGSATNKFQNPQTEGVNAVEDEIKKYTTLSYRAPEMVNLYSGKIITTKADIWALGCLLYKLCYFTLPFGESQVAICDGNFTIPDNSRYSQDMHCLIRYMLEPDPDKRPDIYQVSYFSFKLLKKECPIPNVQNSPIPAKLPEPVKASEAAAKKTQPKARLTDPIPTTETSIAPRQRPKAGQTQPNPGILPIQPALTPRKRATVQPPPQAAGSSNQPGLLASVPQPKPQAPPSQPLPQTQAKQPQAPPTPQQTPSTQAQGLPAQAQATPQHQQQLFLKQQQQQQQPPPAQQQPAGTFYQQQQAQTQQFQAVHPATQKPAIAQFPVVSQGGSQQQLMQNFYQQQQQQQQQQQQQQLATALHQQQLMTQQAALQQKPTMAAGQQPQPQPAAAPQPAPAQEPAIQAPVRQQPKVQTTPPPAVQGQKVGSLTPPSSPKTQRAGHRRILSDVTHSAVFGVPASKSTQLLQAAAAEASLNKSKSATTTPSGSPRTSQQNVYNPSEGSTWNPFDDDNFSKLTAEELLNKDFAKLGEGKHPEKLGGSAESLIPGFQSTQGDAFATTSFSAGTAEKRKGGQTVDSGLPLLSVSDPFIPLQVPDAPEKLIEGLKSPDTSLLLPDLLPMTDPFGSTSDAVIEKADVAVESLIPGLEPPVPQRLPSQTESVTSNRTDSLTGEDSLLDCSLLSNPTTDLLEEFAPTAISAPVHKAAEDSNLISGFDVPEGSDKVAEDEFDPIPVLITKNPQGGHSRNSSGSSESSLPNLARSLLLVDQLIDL
Procedure, shortened: as §1

[26] = target: T26, PAK6 (Homo sapiens, UniProt Q9NQU5)
T26 construct: purchased Ambit (DiscoverX) KINOMEscan; Cerep
T26 sequence (Q9NQU5 whole entry): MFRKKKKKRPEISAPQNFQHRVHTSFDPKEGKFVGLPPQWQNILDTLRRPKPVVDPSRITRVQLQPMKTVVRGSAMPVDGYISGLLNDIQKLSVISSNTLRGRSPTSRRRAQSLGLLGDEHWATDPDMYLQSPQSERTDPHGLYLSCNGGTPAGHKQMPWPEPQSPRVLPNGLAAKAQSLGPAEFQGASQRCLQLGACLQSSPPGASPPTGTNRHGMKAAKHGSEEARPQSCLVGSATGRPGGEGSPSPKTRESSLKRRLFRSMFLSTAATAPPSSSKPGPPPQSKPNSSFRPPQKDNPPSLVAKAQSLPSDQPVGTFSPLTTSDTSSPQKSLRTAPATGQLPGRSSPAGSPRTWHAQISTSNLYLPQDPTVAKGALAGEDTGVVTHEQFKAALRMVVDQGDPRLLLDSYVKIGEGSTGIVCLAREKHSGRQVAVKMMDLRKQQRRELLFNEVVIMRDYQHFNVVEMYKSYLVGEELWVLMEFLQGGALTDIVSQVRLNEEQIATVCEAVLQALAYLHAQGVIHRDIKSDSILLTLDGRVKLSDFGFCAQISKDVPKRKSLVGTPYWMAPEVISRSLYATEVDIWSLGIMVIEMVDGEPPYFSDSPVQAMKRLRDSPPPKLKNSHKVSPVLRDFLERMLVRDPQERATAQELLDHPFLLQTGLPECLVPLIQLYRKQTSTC
Procedure, shortened: as §1

[27] = target: T27, PHKG1 (Homo sapiens, UniProt Q16816)
T27 construct: purchased Ambit (DiscoverX) KINOMEscan; Cerep
Procedure, shortened: as §1

[28] = target: T28, AKT3 (Homo sapiens, UniProt Q9Y243)
T28 construct: purchased Ambit (DiscoverX) KINOMEscan; Cerep
Procedure, shortened: as §1

[29] = target: T29, YSK4 (Homo sapiens, UniProt Q56UN5)
T29 construct: purchased Ambit (DiscoverX) KINOMEscan; Cerep
Procedure, shortened: as §1

[30] = target: T30, MKNK1 (Homo sapiens, UniProt Q9BUB5)
T30 construct: purchased Ambit (DiscoverX) KINOMEscan; Cerep
T30 sequence (Q9BUB5 whole entry): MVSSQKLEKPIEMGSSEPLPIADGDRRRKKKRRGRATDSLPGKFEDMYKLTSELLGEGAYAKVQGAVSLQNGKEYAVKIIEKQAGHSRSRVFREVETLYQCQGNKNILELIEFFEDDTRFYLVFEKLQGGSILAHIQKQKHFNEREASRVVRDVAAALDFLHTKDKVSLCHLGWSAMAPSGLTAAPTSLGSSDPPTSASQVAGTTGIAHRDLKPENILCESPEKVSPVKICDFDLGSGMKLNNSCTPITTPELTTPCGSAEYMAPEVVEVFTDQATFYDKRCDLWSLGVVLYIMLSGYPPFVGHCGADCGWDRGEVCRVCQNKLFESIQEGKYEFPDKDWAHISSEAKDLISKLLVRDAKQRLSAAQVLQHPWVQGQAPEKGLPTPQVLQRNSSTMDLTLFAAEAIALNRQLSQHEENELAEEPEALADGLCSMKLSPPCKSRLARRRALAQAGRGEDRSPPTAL
Procedure, shortened: as §1

[31] = target: T31, ADCK4 (Homo sapiens, UniProt Q96D53)
T31 construct: purchased Ambit (DiscoverX) KINOMEscan; Cerep
Procedure, shortened: as §1

[32] = target: T32, IRAK3 (Homo sapiens, UniProt Q9Y616)
T32 construct: purchased Ambit (DiscoverX) KINOMEscan; Cerep
Procedure, shortened: as §1

[33] = target: T33, RPS6KA4(Kin.Dom.1-N-term) (Homo sapiens, UniProt O75676)
T33 construct: RPS6KA4(Kin.Dom.1-N-term); purchased Ambit (DiscoverX) KINOMEscan; Cerep
Procedure, shortened: as §1

[34] = target: T34, MLK2 (Homo sapiens, UniProt Q02779)
T34 construct: purchased Ambit (DiscoverX) KINOMEscan; Cerep
Procedure, shortened: as §1

CCCCN1CCN(C(=N)c2cccc(NC(=O)Nc3ccc(S(=O)(=O)NCc4ccc(S(N)(=O)=O)cc4)cc3)c2)CC1 [SC81458, 4-(3-(3-((4-butylpiperazin-1-yl)(imino)methyl)phenyl)ureido)-N-(4-sulfamoylbenzyl) benzenesulfonamide]
remaining binding at 10 µM [1]: 78% | remaining binding at 10 µM [2]: 61% | remaining binding at 10 µM [3]: 100% | remaining binding at 10 µM [4]: 100% | remaining binding at 10 µM [5]: 100% | remaining binding at 10 µM [6]: 78% | remaining binding at 10 µM [7]: 83% | remaining binding at 10 µM [8]: 100% | remaining binding at 10 µM [9]: 92% | remaining binding at 10 µM [10]: 100% | remaining binding at 10 µM [11]: 100% | remaining binding at 10 µM [12]: 51% | remaining binding at 10 µM [13]: 100% | remaining binding at 10 µM [14]: 95% | remaining binding at 10 µM [15]: 99% | remaining binding at 10 µM [16]: 100% | remaining binding at 10 µM [17]: 100% | remaining binding at 10 µM [18]: 71% | remaining binding at 10 µM [19]: 100% | remaining binding at 10 µM [20]: 84% | remaining binding at 10 µM [21]: 100% | remaining binding at 10 µM [22]: 70% | remaining binding at 10 µM [23]: 84% | remaining binding at 10 µM [24]: 100% | remaining binding at 10 µM [25]: 100% | remaining binding at 10 µM [26]: 95% | remaining binding at 10 µM [27]: 80% | remaining binding at 10 µM [28]: 66% | remaining binding at 10 µM [29]: 100% | remaining binding at 10 µM [30]: 71% | remaining binding at 10 µM [31]: 100% | remaining binding at 10 µM [32]: 69% | remaining binding at 10 µM [33]: 85% | remaining binding at 10 µM [34]: 100%
